According to patent US6369083B1, “2-methoxyimino-2 (pyrinyloxymethyl) phenyl acetamides with polyether derivatives on the pyridine ring” (Dow AgroSciences LLC, priority 1998, dated 2002):

Key:
Type in all cases: in vivo
Plasmopara viticola = experiment: Downy Mildew of Grape (PLASVI), 96 hour protectant; conditions: grape vines (cultivar Carignane), sprayed at 100 ppm, inoculated after 96 hours (protectant)
Experimental: Compound Formulation: […] Final treatment volumes were obtained by adding nine volumes 0.05kOO aqueous Tween-20 or Triton X-100, depending upon the pathogen. Downy Mildew of Grape (Plasmogara viticola-[…]) (96 Hour Protectant): Vines (cultivar Carignane) were grown from seed in a soilless peat-based potting mixture (Metromix) until the seedlings were 10-20 cm tall. These plants were then sprayed to run off with the test compound at a rate of 100 ppm. After 96 hours the test plants were inoculated by spraying with an aqueous sporangia suspension of Plasmopara viticola. The plants were then transferred to the greenhouse until disease developed on the untreated control plants. The following table presents the activity of typical compounds of the present invention when evaluated in these experiments. The effectiveness of the test compounds in controlling disease was rated using the following scale: […]

Leptosphaeria nodorum = experiment: Glume blotch of wheat (LEPTNO); conditions: wheat (cultivar Monon), sprayed at 100 ppm, inoculated after 24 hours
Experimental: Compound Formulation: […] Final treatment volumes were obtained by adding nine volumes 0.05kOO aqueous Tween-20 or Triton X-100, depending upon the pathogen. Glume blotch of wheat (Leptosphaeria nodorum-[…]): Wheat (cultivar Monon) was grown from seed in a soilless peat-based potting mixture (Metromix) until the seedlings were 1-2 leaf (BBCH 12). These plants were then sprayed to run off with the test compound at a rate of 100 ppm. After 24 hours the test plants were inoculated with an aqueous spore suspension of Leptosphaeria nodorum. The plants were then transferred to the greenhouse until disease developed on the untreated control plants. Brown rust (Puccinia recondita-PUCCRT): Wheat (cultivar Monon) was grown from seed in a soilless peat-based potting mixture (Metromix) until the seedlings were 1-2 leaf (BBCH 12). These plants were then sprayed to run off with the test compound at a rate of 100 ppm. After 24 hours the test plants were inoculated with an aqueous spore suspension of Puccinia recondita. The plants were then transferred to the greenhouse until disease developed on the untreated control plants. The following table presents the activity of typical compounds of the present invention when evaluated in these experiments. The effectiveness of the test compounds in controlling disease was rated using the following scale: […]

Erysiphe graminis = experiment: Powdery Mildew of Wheat (ERYSGT); conditions: wheat (cultivar Monon), inoculated, sprayed at 25 ppm after 48 hours
Experimental: Compound Formulation: […] Final treatment volumes were obtained by adding nine volumes 0.05kOO aqueous Tween-20 or Triton X-100, depending upon the pathogen. Powdery Mildew of Wheat (Erysiphe graminis-[…]): Wheat (cultivar Monon) was grown in a soilless peat-based potting mixture (Metromix) until the seedlings were 1-2 leaf (BBCH 12). These plants were then inoculated with Erysiphe graminis by dusting spores from stock plants onto the test plants. After 48 hours the plants were sprayed to run off with the test compound at a rate of 25 ppm and then kept in the greenhouse until disease developed on the untreated control plants. The following table presents the activity of typical compounds of the present invention when evaluated in these experiments. The effectiveness of the test compounds in controlling disease was rated using the following scale: […]

Septoria tritici = experiment: Septoria leaf spot (SEPTTR); conditions: wheat (cultivar Monon), sprayed at 100 ppm, inoculated after 24 hours
Experimental: Compound Formulation: […] Final treatment volumes were obtained by adding nine volumes 0.05kOO aqueous Tween-20 or Triton X-100, depending upon the pathogen. Septoria leaf spot (Septoria tritici-[…]): Wheat (cultivar Monon) was grown from seed in a soilless peat-based potting mixture (Metromix) until the seedlings were 1-2 leaf (BECH 12). These plants were then sprayed to run off with the test compound at a rate of 100 ppm. After 24 hours the test plants were inoculated with an aqueous spore suspension of Septoria tritici. The plants were then transferred to the greenhouse until disease developed on the untreated control plants. The following table presents the activity of typical compounds of the present invention when evaluated in these experiments. The effectiveness of the test compounds in controlling disease was rated using the following scale: […]

Molecule	PLASVI control of plant disease (Plasmopara viticola)	LEPTNO control of plant disease (Leptosphaeria nodorum)	ERYSGT control of plant disease (Erysiphe graminis)	SEPTTR control of plant disease (Septoria tritici)
CCOc1cccc2nc(Sc3cccc(OCc4ccccc4C(=NOC)C(=O)NC)n3)sc12 [Compound 13]	+ (+ = 25-74% control of plant disease)	+ (+ = 25-74% control of plant disease)	− (− = 0-24% control of plant disease)	
CCOCCOCCOc1nc(OCc2ccccc2C(=NOC)C(=O)NC)c(Cl)cc1Cl [Compound 16]	++ (++ = 75-100 % control of plant disease)	+ (+ = 25-74% control of plant disease)	++ (++ = 75-100 % control of plant disease)	
CCOCCOc1cccc(OCc2ccccc2C(=NOC)C(=O)NC)n1 [Compound 17]	++ (++ = 75-100 % control of plant disease)	++ (++ = 75-100 % control of plant disease)	+ (+ = 25-74% control of plant disease)	
CCOCCOc1nc(OCc2ccccc2C(=NOC)C(=O)NC)c(Cl)cc1Cl [Compound 18]	++ (++ = 75-100 % control of plant disease)	++ (++ = 75-100 % control of plant disease)	+ (+ = 25-74% control of plant disease)	
CCCOCCOCCOc1nc(OCc2ccccc2C(=NOC)C(=O)NC)c(Cl)cc1Cl [Compound 19]	+ (+ = 25-74% control of plant disease)	++ (++ = 75-100 % control of plant disease)	+ (+ = 25-74% control of plant disease)	
CCOCCCOc1cccc(OCc2ccccc2C(=NOC)C(=O)NC)n1 [Compound 55]		+ (+ = 25-74% control of plant disease)	+ (+ = 25-74% control of plant disease)	
CCCCC(CC)COCCOc1cccc(OCc2ccccc2C(=NOC)C(=O)NC)n1 (stereo not drawn) [Compound 56]	++ (++ = 75-100 % control of plant disease)			++ (++ = 75-100 % control of plant disease)
CNC(=O)C(=NOC)c1ccccc1COc1cccc(SCc2ccc(OC)cc2)n1 [Compound 57]				++ (++ = 75-100 % control of plant disease)
CNC(=O)C(=NOC)c1ccccc1COc1cccc(OCCOC2CCC2)n1 [Compound 58]	++ (++ = 75-100 % control of plant disease)			++ (++ = 75-100 % control of plant disease)
CCCOCCOc1cccc(OCc2c(Cl)cccc2C(=NOC)C(=O)NC)n1 [Compound 60]	++ (++ = 75-100 % control of plant disease)			++ (++ = 75-100 % control of plant disease)
CCCCCOCCOc1cccc(OCc2ccccc2C(=NOC)C(=O)NC)n1 [Compound 61]	++ (++ = 75-100 % control of plant disease)			++ (++ = 75-100 % control of plant disease)
CNC(=O)C(=NOC)c1ccccc1COc1cccc(OCCOC2CCCCC2)n1 [Compound 62]	++ (++ = 75-100 % control of plant disease)			+ (+ = 25-74% control of plant disease)
CCOc1ccccc1Oc1cccc(OCc2ccccc2C(=NOC)C(=O)NC)n1 [Compound 64]	++ (++ = 75-100 % control of plant disease)			++ (++ = 75-100 % control of plant disease)
CCOCCCCOc1cccc(OCc2ccccc2C(=NOC)C(=O)NC)n1 [Compound 65]	++ (++ = 75-100 % control of plant disease)			++ (++ = 75-100 % control of plant disease)
CNC(=O)C(=NOC)c1ccccc1COc1cccc(OCCCCCOCc2ccccc2)n1 [Compound 66]	++ (++ = 75-100 % control of plant disease)			++ (++ = 75-100 % control of plant disease)
CCOc1ccc(Oc2cccc(OCc3ccccc3C(=NOC)C(=O)NC)n2)cc1 [Compound 68]	++ (++ = 75-100 % control of plant disease)			+ (+ = 25-74% control of plant disease)

Molecule	PLASVI control of plant disease (Plasmopara viticola)	LEPTNO control of plant disease (Leptosphaeria nodorum)	ERYSGT control of plant disease (Erysiphe graminis)	SEPTTR control of plant disease (Septoria tritici)
CCCCCCOCCOc1cccc(OCc2ccccc2C(=NOC)C(=O)NC)n1 [Compound 70]	+ (+ = 25-74% control of plant disease)			+ (+ = 25-74% control of plant disease)
CNC(=O)C(=NOC)c1ccccc1COc1cccc(OCCCOCCCOC)n1 [Compound 71]				− (− = 0-24% control of plant disease)
C=CC(COC)Oc1cccc(OCc2ccccc2C(=NOC)C(=O)NC)n1 (stereo not drawn) [Compound 72]				− (− = 0-24% control of plant disease)
CNC(=O)C(=NOC)c1ccccc1COc1cccc(OCCOC(CCC#N)OC)n1 (stereo not drawn) [Compound 73]				− (− = 0-24% control of plant disease)
CNC(=O)C(=NOC)c1ccccc1COc1cccc(OCCOCC2CO2)n1 (stereo not drawn) [Compound 74]				++ (++ = 75-100 % control of plant disease)
CCCCCOCCOc1cccc(OCc2c(F)cccc2C(=NOC)C(=O)NC)n1 [Compound 75]				++ (++ = 75-100 % control of plant disease)
CCCCCOCCOc1cccc(OCc2c(Cl)cccc2C(=NOC)C(=O)NC)n1 [Compound 76]				++ (++ = 75-100 % control of plant disease)
CCOCCCOc1cccc(OCc2c(F)cccc2C(=NOC)C(=O)NC)n1 [Compound 77]				++ (++ = 75-100 % control of plant disease)
CCOCCCOc1cccc(OCc2c(Cl)cccc2C(=NOC)C(=O)NC)n1 [Compound 78]				++ (++ = 75-100 % control of plant disease)
CNC(=O)C(=NOC)c1cccc(F)c1COc1cccc(OCCCOC(C)C)n1 [Compound 79]				++ (++ = 75-100 % control of plant disease)
CNC(=O)C(=NOC)c1cccc(Cl)c1COc1cccc(OCCCOC(C)C)n1 [Compound 80]				++ (++ = 75-100 % control of plant disease)
CNC(=O)C(=NOC)c1ccccc1COc1cccc(Oc2ccccc2OC)n1 [Compound 81]				+ (+ = 25-74% control of plant disease)
CNC(=O)C(=NOC)c1ccccc1COc1cccc(OCc2ccccc2OC)n1 [Compound 82]				++ (++ = 75-100 % control of plant disease)
CNC(=O)C(=NOC)c1ccccc1COc1cccc(OCc2ccc(OC)cc2)n1 [Compound 83]				++ (++ = 75-100 % control of plant disease)
CCOc1ccc(Sc2cccc(OCc3ccccc3C(=NOC)C(=O)NC)n2)cc1 [Compound 85]				− (− = 0-24% control of plant disease)
Benzeneacetamide, 2-[[[6-(2-(2-ethoxyethoxy)ethoxy) -2-pyridinyl]oxy]methyl]-α-(methoxyimino)-N-methyl- [Compound 21]	++ (++ = 75-100 % control of plant disease)	+ (+ = 25-74% control of plant disease)		
